From PubChem BioAssay AID2060502 (Molecular Pharmacology Branch, DTP, NCI, 2025)

Test system: 885724-159-R-J1-PDC complex spheroid viability
Assay: Anticancer human tumor 885724-159-R-J1-PDC patient-derived pancreatic adenocarcinoma cell line growth inhibition [GQUAD]
Settings: for IC50: curve of first compound; for viability, T/C: stronger effect = lower value; active means viability on the fitted dose curve at most 10% of control; inactive means the rest
Method in brief: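 Viability of tumor cells grown as complex spheroids with endothelial and stromal cells, exposed to drug combinations. Top concentration at or near clinical Cmax (else 10 microM), diluted in half-log increments.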

[1] = second compound 0.0316 µM, first compound 0.0316 µM
[2] = second compound 0.0316 µM, first compound 0.1 µM
[3] = second compound 0.0316 µM, first compound 0.316 µM
[4] = second compound 0.0316 µM, first compound 1 µM
[5] = second compound 0.0316 µM, first compound 3.16 µM
[6] = second compound 0.0316 µM, first compound 10 µM
[7] = second compound 0.1 µM, first compound 0.0316 µM
[8] = second compound 0.1 µM, first compound 0.1 µM
[9] = second compound 0.1 µM, first compound 0.316 µM
[10] = second compound 0.1 µM, first compound 1 µM
[11] = second compound 0.1 µM, first compound 3.16 µM
[12] = second compound 0.1 µM, first compound 10 µM
[13] = second compound 0.316 µM, first compound 0.0316 µM
[14] = second compound 0.316 µM, first compound 0.1 µM
[15] = second compound 0.316 µM, first compound 0.316 µM
[16] = second compound 0.316 µM, first compound 1 µM
[17] = second compound 0.316 µM, first compound 3.16 µM
[18] = second compound 0.316 µM, first compound 10 µM
[19] = second compound 1 µM, first compound 0.0316 µM
[20] = second compound 1 µM, first compound 0.1 µM
[21] = second compound 1 µM, first compound 0.316 µM
[22] = second compound 1 µM, first compound 1 µM
[23] = second compound 1 µM, first compound 3.16 µM
[24] = second compound 1 µM, first compound 10 µM
[25] = second compound 3.16 µM, first compound 0.0316 µM
[26] = second compound 3.16 µM, first compound 0.1 µM
[27] = second compound 3.16 µM, first compound 0.316 µM
[28] = second compound 3.16 µM, first compound 1 µM
[29] = second compound 3.16 µM, first compound 3.16 µM
[30] = second compound 3.16 µM, first compound 10 µM
[31] = second compound 10 µM, first compound 0.0316 µM
[32] = second compound 10 µM, first compound 0.1 µM
[33] = second compound 10 µM, first compound 0.316 µM
[34] = second compound 10 µM, first compound 1 µM
[35] = second compound 10 µM, first compound 3.16 µM
[36] = second compound 10 µM, first compound 10 µM
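Further: spheroids exposed to agents for seven days before readout.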
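Wherever viability, T/C is given: percent of vehicle control viability where 100% = DMSO wells.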

O=C(c1cc(Cc2n[nH]c(=O)c3ccccc23)ccc1F)N1CCN(C(=O)C2CC2)CC1 + CN(C)c1ccc(Nc2c3ccc(NC(=O)CCN4CCCC4)cc3nc3cc(NC(=O)CCN4CCCC4)ccc23)cc1
> 10 µM: IC50 (second compound 0.0316 µM) | IC50 (second compound 0.1 µM) | IC50 (second compound 0.316 µM) | IC50 (second compound 1 µM) | IC50 (second compound 3.16 µM) | IC50 (second compound 10 µM)
inactive: viability, T/C [1] 117% | viability, T/C [2] 93.1% | viability, T/C [3] 89.7% | viability, T/C [4] 92.4% | viability, T/C [5] 95.3% | viability, T/C [6] 88.8% | viability, T/C [7] 101% | viability, T/C [8] 100% | viability, T/C [9] 103% | viability, T/C [10] 106% | viability, T/C [11] 85.3% | viability, T/C [12] 72.5% | viability, T/C [13] 90.6% | viability, T/C [14] 88.1% | viability, T/C [15] 105% | viability, T/C [16] 93.5% | viability, T/C [17] 97.1% | viability, T/C [18] 80% | viability, T/C [19] 83.3% | viability, T/C [20] 80% | viability, T/C [21] 87% | viability, T/C [22] 73.3% | viability, T/C [23] 76.7% | viability, T/C [24] 63.8% | viability, T/C [25] 79.4% | viability, T/C [26] 65.2% | viability, T/C [27] 84.4% | viability, T/C [28] 73.2% | viability, T/C [29] 70.5% | viability, T/C [30] 69.5% | viability, T/C [31] 72.1% | viability, T/C [32] 74.2% | viability, T/C [33] 69.9% | viability, T/C [34] 75.9% | viability, T/C [35] 90.1% | viability, T/C [36] 69.6%

Cc1cccc(N(C)C(=O)C2C(O)CCN2c2nc(C)cc(C(F)(F)F)c2C#N)c1 (stereo not drawn) + Cc1cnc(CNC(=O)c2c(=O)c3ccc(N4CCCN(C)CC4)nc3n3c2sc2ccccc23)cn1
> 10 µM: IC50 (second compound 0.0316 µM) | IC50 (second compound 0.1 µM) | IC50 (second compound 0.316 µM) | IC50 (second compound 1 µM) | IC50 (second compound 3.16 µM) | IC50 (second compound 10 µM)
inactive: viability, T/C [1] 93.7% | viability, T/C [2] 107% | viability, T/C [3] 108% | viability, T/C [4] 99.7% | viability, T/C [5] 104% | viability, T/C [6] 96.9% | viability, T/C [7] 107% | viability, T/C [8] 106% | viability, T/C [9] 112% | viability, T/C [10] 98.6% | viability, T/C [11] 91.8% | viability, T/C [12] 108% | viability, T/C [13] 103% | viability, T/C [14] 84% | viability, T/C [15] 89.3% | viability, T/C [16] 93.9% | viability, T/C [17] 101% | viability, T/C [18] 82.5% | viability, T/C [19] 83.6% | viability, T/C [20] 95.6% | viability, T/C [21] 88.3% | viability, T/C [22] 88.4% | viability, T/C [23] 93.9% | viability, T/C [24] 94.3% | viability, T/C [25] 84% | viability, T/C [26] 70.5% | viability, T/C [27] 79.1% | viability, T/C [28] 72.8% | viability, T/C [29] 79.4% | viability, T/C [30] 73.3% | viability, T/C [31] 92.7% | viability, T/C [32] 90.9% | viability, T/C [33] 84.8% | viability, T/C [34] 72.6% | viability, T/C [35] 103% | viability, T/C [36] 84.3%

Cc1cccc(N(C)C(=O)C2C(O)CCN2c2nc(C)cc(C(F)(F)F)c2C#N)c1 (stereo not drawn) + Cc1[nH]c2ccc(F)cc2c1-c1nc2c3cccnc3c3ncccc3c2[nH]1
inactive: viability, T/C [1] 105% | viability, T/C [2] 93.1% | viability, T/C [3] 82.5% | viability, T/C [4] 100% | viability, T/C [5] 94.2% | viability, T/C [6] 93.1% | viability, T/C [7] 91.3% | viability, T/C [8] 95.3% | viability, T/C [9] 104% | viability, T/C [10] 98.6% | viability, T/C [11] 81.8% | viability, T/C [12] 87.8% | viability, T/C [13] 101% | viability, T/C [14] 101% | viability, T/C [15] 97.4% | viability, T/C [16] 79.9% | viability, T/C [17] 83.4% | viability, T/C [18] 86.7% | viability, T/C [19] 71.9% | viability, T/C [20] 70.6% | viability, T/C [21] 77.1% | viability, T/C [22] 66.2% | viability, T/C [23] 81% | viability, T/C [24] 70.8% | viability, T/C [25] 46.6% | viability, T/C [26] 41.4% | viability, T/C [27] 50.8% | viability, T/C [28] 42.6% | viability, T/C [29] 42.1% | viability, T/C [30] 43% | viability, T/C [31] 66.2% | viability, T/C [32] 68.3% | viability, T/C [33] 64.8% | viability, T/C [34] 69.1% | viability, T/C [35] 80.9% | viability, T/C [36] 82.7%
> 10 µM: IC50 (second compound 0.0316 µM) | IC50 (second compound 0.1 µM) | IC50 (second compound 0.316 µM) | IC50 (second compound 1 µM) | IC50 (second compound 10 µM)
< 0.0316 µM: IC50 (second compound 3.16 µM)

C=CCn1c(=O)c2cnc(Nc3ccc(N4CCN(C)CC4)cc3)nc2n1-c1cccc(C(C)(C)O)n1 + CN(C)c1ccc(Nc2c3ccc(NC(=O)CCN4CCCC4)cc3nc3cc(NC(=O)CCN4CCCC4)ccc23)cc1
inactive: viability, T/C [1] 99% | viability, T/C [2] 86.2% | viability, T/C [3] 74.4% | viability, T/C [4] 81.6% | viability, T/C [5] 72.4% | viability, T/C [6] 73% | viability, T/C [7] 95.4% | viability, T/C [8] 83.6% | viability, T/C [9] 79.3% | viability, T/C [10] 73.7% | viability, T/C [11] 71.3% | viability, T/C [12] 72.5% | viability, T/C [13] 92% | viability, T/C [14] 81.8% | viability, T/C [15] 69.5% | viability, T/C [16] 63.4% | viability, T/C [17] 57.7% | viability, T/C [18] 52.3% | viability, T/C [19] 83.5% | viability, T/C [20] 66.7% | viability, T/C [21] 60.4% | viability, T/C [22] 44.1% | viability, T/C [23] 57.2% | viability, T/C [24] 47.3% | viability, T/C [25] 82.6% | viability, T/C [26] 60.7% | viability, T/C [27] 61.2% | viability, T/C [28] 40.7% | viability, T/C [29] 52.1% | viability, T/C [30] 38.7% | viability, T/C [31] 68.3% | viability, T/C [32] 69.5% | viability, T/C [33] 56.7% | viability, T/C [34] 50.4% | viability, T/C [35] 45.7% | viability, T/C [36] 19.6%
0.714 µM: IC50 (second compound 3.16 µM)
3.83 µM: IC50 (second compound 1 µM)
1.34 µM: IC50 (second compound 10 µM)
> 10 µM: IC50 (second compound 0.0316 µM) | IC50 (second compound 0.1 µM) | IC50 (second compound 0.316 µM)
